One experiment has as its target T1, human PPARγ1 (Homo sapiens, UniProt P37231).
T1 construct: expressed in transfected cells; host or cells: cos-7 cells (ECACC No. 87021302)
T1 sequence (P37231 1-477 isoform P37231-2): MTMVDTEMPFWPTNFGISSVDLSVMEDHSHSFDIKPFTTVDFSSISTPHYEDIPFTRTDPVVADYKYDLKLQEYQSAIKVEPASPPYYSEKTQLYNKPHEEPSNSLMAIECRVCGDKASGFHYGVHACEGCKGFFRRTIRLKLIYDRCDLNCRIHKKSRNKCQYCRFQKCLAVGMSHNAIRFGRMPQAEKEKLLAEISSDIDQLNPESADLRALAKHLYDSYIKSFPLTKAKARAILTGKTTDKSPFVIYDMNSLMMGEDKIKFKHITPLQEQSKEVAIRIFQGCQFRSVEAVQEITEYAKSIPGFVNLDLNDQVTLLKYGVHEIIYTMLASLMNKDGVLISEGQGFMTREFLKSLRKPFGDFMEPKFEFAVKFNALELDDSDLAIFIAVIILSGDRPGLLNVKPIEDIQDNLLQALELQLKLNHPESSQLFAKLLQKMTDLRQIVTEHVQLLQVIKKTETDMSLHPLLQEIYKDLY
T1 sequence (P19793 1-462 partner): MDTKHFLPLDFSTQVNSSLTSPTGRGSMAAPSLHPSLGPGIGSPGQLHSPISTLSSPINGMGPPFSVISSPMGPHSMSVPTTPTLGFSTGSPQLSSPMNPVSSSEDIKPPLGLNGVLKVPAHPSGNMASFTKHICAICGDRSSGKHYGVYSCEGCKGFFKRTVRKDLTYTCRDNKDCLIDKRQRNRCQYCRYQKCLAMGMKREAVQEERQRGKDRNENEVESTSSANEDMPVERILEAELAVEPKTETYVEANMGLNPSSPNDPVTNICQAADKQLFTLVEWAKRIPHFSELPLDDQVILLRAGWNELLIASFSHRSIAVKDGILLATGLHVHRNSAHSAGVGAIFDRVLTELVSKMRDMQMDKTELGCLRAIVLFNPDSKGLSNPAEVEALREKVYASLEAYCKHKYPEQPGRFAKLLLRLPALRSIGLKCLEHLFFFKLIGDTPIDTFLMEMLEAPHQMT
The experiment is described as follows: PPARgamma reporter gene assay (luciferase) in transfected cos-7 cells. Type of experiment: cell-based. Here is the method: PPARgamma receptor activity is determined by a suitable reporter gene assay. Preferably the reporter gene assay used comprises the transcription induction of a luciferase gene. Levels of firefly luciferase (normalised against the renilla luciferase control) provide a measure of reporter gene activity which in turn reflects the level of activation.
This assay is based on that described by Kliewer et al (Nature 358 771-774 1992). In brief, cos-7 cells (ECACC No. 87021302) were seeded in 24-well plates at a density of 0.325×10^5 cells/well. Cells were grown overnight at 37° C./5% CO2 in DMEM containing 10% FCS, 2 mM L-glutamine, 100 iu/ml penicillin and 100 µg/ml streptomycin. Cells were washed with transfection media (DMEM containing 2 mM L-glutamine) then transiently transfected with 4 plasmids: a PPAR-responsive firefly luciferase reporter gene (pPPRE3TK-luc); mammalian expression plasmids (pcDNA3/hPPARγ1 and pRSV/hRXRα) containing human PPARγ1 and RXRα cDNAs respectively and a control plasmid (PRLTK, Promega) which constitutatively expresses the renilla luciferase gene. Transfection was performed using Lipofectamine (Gibco Brl) as directed by the manufacturers. Transfected cells were incubated for 6 h at 37° C./5% CO2 and then for a further 46 hours in the presence or absence of ligand. After 46 hours cell lysates were prepared and the level of firefly and renilla luciferase determined using the Dual luciferase assay system (Promega) and a MLX microtitre plate luminometer (Dynex). The level of firefly luciferase (normalised against the renilla luciferase control) provides a measure of reporter gene activity. This in turn reflect the level of PPARγ activation.
A double-stranded PPAR-binding site was prepared using the ‘Klenow fill-in’ technique. A 113 bp oligonucleotide (PPRE1/3) containing a triplet of PPREs and appropriate restriction endonuclease sites was designed. PPRE1/3 and a 20 bp oligonucleotide (PPRE1/3R) complementary to the 3′ region of PPRE1/3 were synthesised.
In a final volume of 20 μl 2 μg of PPRE1/3R was annealed to 2 μg of PPRE1/3 by boiling for 5 minutes and then cooling slowly to room temperature. Annealed PPRE1/3R was used to prime second-strand DNA synthesis. A 30 μl reaction mix containing 20 μl annealed DNA, 1.5 μl 2 mM dNTPs, 1×Klenow Buffer and 5 units DNA Polymerase I (Klenow fragment) was incubated for 1 hour at 37° C. and then 10 minutes at 75° C. A 5 μl sample of the synthesised product was analysed on a 3% agarose gel. The remaining product was purified by ethanol precipitation and resuspended in sterile water. The double-stranded PPAR-binding site (insert) was digested with MluI and BgllI for 1 hour at 37° C. and then purified by ethanol precipitation. 1 μg of the vector pNF-κB-luc (Clontech) was digested with MluI and BgllI for 1 hour at 37° C. and then analysed on a 1% agarose gel Digested DNA was purified from the gel using a Qiaquick Gel Extraction Kit (Qiagen). Digested vector and insert DNA were incubated for 4 hours at room temperature in a volume of 15 μl containing 1×ligase buffer and 5 units T4 DNA ligase. The full ligation reaction was used to transform competant E.coli JM109 cells (Promega).

Experiment [1] has as its system Human skeletal muscle cells (SMCs). The experiment is described as follows: Glucose uptake assay in human skeletal muscle cells ([3H]2-deoxyglucose). Type of experiment: cell-based. Here is the method:
Human skeletal muscle cells (SMCs) were obtained from TCS 2000 Ltd. Cells were seeded into 12-well plates at a density of 3×10^4 cells/well and then grown and differentiated as instructed by TCS. Differentiated human SMCs were incubated, for 32 hours at 37° C./5% CO2, in differentiation media (supplied by TCS) supplemented with an appropriate amount of agent or vehicle. Media was then changed to serum free media (MEM-alpha media, 2 mM glutamine, 100 iu/ml penicillin and 100 μg/ml streptomycin), supplemented as before, and the cells incubated for a further 16 hours.
Cells were then washed 3×with Krebs Ringer Phosphate (KRP) buffer [136 mM NaCl, 4.7 mM KCl, 1.25 mM CaCl2, 1.25 mM MgSO4, 10 mM sodium phosphate buffer, pH 7.4] and incubated in KRP (0.5 ml/well) for 30 minutes at 37° C./5% CO2. After 30 minutes incubation the glucose uptake assay was initiated by addition of 25 μl KRP containing 5 μCi [^3H]2-deoxyglucose and 1 mM deoxyglucose. After 10 minutes the reaction was terminated by washing the cells 3×with ice-cold PBS. Cells were then solublised with 125 μl/well of 1% Triton X-100 for 20 minutes at 37° C. Radioactive incorporation was measured by scintillation counting. 100 μl of each sample was analysed.

The mark [2] stands for this setting: 1.25 μg/ml, purified components, Table 8.
The mark [3] stands for this setting: 2.5 μg/ml, purified components, Table 8.
[4] abbreviates: 5 μg/ml, purified components, Table 8.

Consider `C/C(=C\CC/C(C)=C/CC/C(C)=C/CCC1C(C)(O)CCC2C(C)(C)C(O)CCC12C)CO` [Myrrhanol A, Decahydro-5-[(3E,7E,11E)-13-hydroxy-4,8,12-trimethyl-3,7,11-tridecatrienyl]-1,1,4a,6-tetramethyl-, (2S,4aS,5R,6R,8aS)-2,6-naphthalenediol], for which the “Activation of PPARgamma in the reporter gene assay (in words)” value (shortened to “Activation of PPARgamma”) on human PPARγ1 is listed as “activate PPARgamma to a lesser degree”. Further, the figures for the “Reporter gene activity (Fold-induction relative to the vehicle) Mean” value at human PPARγ1 (setting [2]), at human PPARγ1 (setting [3]) and at human PPARγ1 (setting [4]) were 1.14 Fold-induction, 1.74 Fold-induction and 3.87 Fold-induction, respectively.

On to `C/C(=C\CC/C(C)=C/CCC1[C@](C)(O)CC[C@H]2C(C)(C)C(=O)CC[C@]12C)CC/C=C(\C)C(=O)O` (stereo partly drawn) [Commipheric acid, 13-(decahydro-2-hydroxy-2,5,5,8a-tetramethyl-6-oxo-1-naphthalenyl)-2,6,10-trimethyl-, [1R-[1α(2E,6E,10E),2β,4aβ,8aα]]-2,6,10-tridecatrienoic acid], for which, on human PPARγ1, the “Activation of PPARgamma” value is recorded as “able to activate PPARgamma”. In addition, the “Reporter gene activity (Fold-induction relative to the vehicle) Mean” value on human PPARγ1 (setting [2]) is recorded as 2.56 Fold-induction; at human PPARγ1 (setting [3]), 3.40 Fold-induction; at human PPARγ1 (setting [4]) it was 8.01 Fold-induction.

Take `C/C=C1/C(=O)C[C@H]2[C@@H]3CCC4=CC(=O)CC[C@]4(C)[C@H]3CC[C@]12C` [E-guggulsterone, reference compound]: the “Activation of PPARgamma” value on human PPARγ1 is “neither the E-nor the Z-form of guggulsterone can activate PPARgamma”. For the same compound, the “Reporter gene activity (Fold-induction relative to the vehicle) Mean” value on human PPARγ1 (5 μg/ml, Table 9) came to 0.4 Fold-induction.

Regarding `CC1(COc2ccc(CC3SC(=O)NC3=O)cc2)CCCCC1` (centres unmarked) [Ciglitizone], the “[3H] 2-deoxyglucose uptake (Fold-induction relative to vehicle) Mean” value in experiment [1] (2.5 uM) is reported as 1.3 Fold-induction; in experiment [1] (5 uM) it was 3.3 Fold-induction.

As to `C/C(=C\CC/C(C)=C/CC/C(C)=C/CC[C@@H]1[C@@]2(C)CCC(=O)C(C)(C)[C@@H]2CC[C@@]1(C)O)CO` [Commipherol, Octahydro-6-hydroxy-5-(13-hydroxy-4,8,12-trimethyl-3,7,11-tridecatrienyl)-1,1,4a,6-tetramethyl-, [4aS-[4aα,5α(3E,7E,11E),6β,8aβ]]-2(1H)-naphthalenone], the “Activation of PPARgamma” value on human PPARγ1 was “activate PPARgamma to a lesser degree”. Besides, the “Reporter gene activity (Fold-induction relative to the vehicle) Mean” value at human PPARγ1 (setting [2]) is recorded as 3.41 Fold-induction; on human PPARγ1 (setting [3]) it was 4.97 Fold-induction.

`C/C=C1\C(=O)C[C@H]2[C@@H]3CCC4=CC(=O)CC[C@]4(C)[C@H]3CC[C@]12C` [Z-guggulsterone, reference compound]: on human PPARγ1, the “Activation of PPARgamma” value is reported as “neither the E-nor the Z-form of guggulsterone can activate PPARgamma”. For the same compound, the “Reporter gene activity (Fold-induction relative to the vehicle) Mean” value at human PPARγ1 (5 μg/ml, Table 9) was determined as 0.5 Fold-induction.

(Values after patent US20030171398A1, “Food compositions for reducing insulin resistance” (Unilever Patent Holdings BV, priority 2001, published 2003).)
